Assay results as given in patent publication US11667678B2, “Peptides for the treatment of COVID-19” (priority 2019, dated 2023).

Tests used:
Type in all cases: cell-based
[1] = tested on: human A549 lung cells challenged with UK variant (Alpha or N501Y) SARS-CoV-2 spike S1
[2] = tested on: human A549 lung cells challenged with South Africa variant (E484K) SARS-CoV-2 spike S1
[3] = tested on: human A549 lung cell line stimulated with Omicron variant SARS-CoV-2 spike S1
[4] = tested on: human A549 lung cells challenged with Delta variant SARS-CoV-2 spike S1

Row | Compound | IL-6 promoter-driven luciferase activity (reporter activity) [1] | IL-6 promoter-driven luciferase activity (reporter activity) [2] | Omicron variant spike S1-induced expression of TNFα and IL-1β (mRNA and promoter-luciferase activity) [3] | IL-6 promoter-driven luciferase activity (reporter activity) [4]
1 | EDLFYQ (SPIDAR peptide) [wtSPIDAR] | significant inhibition | significant inhibition | Significant inhibition | significant inhibition
2 | CC(C)=CCO [prenol] | significant inhibition | significant inhibition | Significant inhibition | significant inhibition
3 | O=C(O)c1ccc(O)cc1 [4HB, 4-hydroxybenzoate] | significant inhibition | significant inhibition | Significant inhibition | significant inhibition
